We go through three compounds from patent US9993459B2, “Selective HDAC6 inhibitors and uses thereof” (Universiteit Gent, priority 2015, dated 2018).

Holding throughout (assay type): biochemical
The target in one test is HDAC1 (Homo sapiens, UniProt Q13547). In words: In vitro HDAC isozyme selectivity screen: HDAC1. The conditions noted are these: for IC50: Table 2.
The next test deals with HDAC2 (Homo sapiens, UniProt Q92769). In words: In vitro HDAC isozyme selectivity screen: HDAC2. As to conditions: for IC50: Table 2.
The next test concerns the target HDAC9 (Homo sapiens, UniProt Q9UKV0). In words: In vitro HDAC isozyme selectivity screen: HDAC9. The conditions noted are these: for IC50: Table 2.
Another test deals with T1, HDAC10 (Homo sapiens, UniProt Q969S8).
T1 sequence (Q969S8 1-669): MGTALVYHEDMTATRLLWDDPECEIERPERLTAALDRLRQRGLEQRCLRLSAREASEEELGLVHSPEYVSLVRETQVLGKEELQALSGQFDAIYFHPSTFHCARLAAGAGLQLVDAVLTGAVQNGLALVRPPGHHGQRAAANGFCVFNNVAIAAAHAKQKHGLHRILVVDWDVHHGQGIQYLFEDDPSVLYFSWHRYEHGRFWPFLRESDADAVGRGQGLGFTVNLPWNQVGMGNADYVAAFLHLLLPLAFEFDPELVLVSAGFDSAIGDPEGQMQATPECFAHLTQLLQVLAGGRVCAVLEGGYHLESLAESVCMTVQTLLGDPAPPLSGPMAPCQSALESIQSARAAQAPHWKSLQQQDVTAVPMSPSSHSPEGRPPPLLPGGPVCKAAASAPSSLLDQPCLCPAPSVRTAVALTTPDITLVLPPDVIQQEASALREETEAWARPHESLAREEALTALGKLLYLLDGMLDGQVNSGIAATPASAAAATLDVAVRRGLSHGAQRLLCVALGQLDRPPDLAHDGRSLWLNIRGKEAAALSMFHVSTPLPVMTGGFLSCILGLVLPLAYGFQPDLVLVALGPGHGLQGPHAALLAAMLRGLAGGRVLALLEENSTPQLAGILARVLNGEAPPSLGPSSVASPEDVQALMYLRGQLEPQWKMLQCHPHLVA
In words: In vitro HDAC isozyme selectivity screen: HDAC10. As to conditions: Table 2.

Another test deals with T2, HDAC8 (Homo sapiens, UniProt Q9BY41).
T2 sequence (Q9BY41 1-377): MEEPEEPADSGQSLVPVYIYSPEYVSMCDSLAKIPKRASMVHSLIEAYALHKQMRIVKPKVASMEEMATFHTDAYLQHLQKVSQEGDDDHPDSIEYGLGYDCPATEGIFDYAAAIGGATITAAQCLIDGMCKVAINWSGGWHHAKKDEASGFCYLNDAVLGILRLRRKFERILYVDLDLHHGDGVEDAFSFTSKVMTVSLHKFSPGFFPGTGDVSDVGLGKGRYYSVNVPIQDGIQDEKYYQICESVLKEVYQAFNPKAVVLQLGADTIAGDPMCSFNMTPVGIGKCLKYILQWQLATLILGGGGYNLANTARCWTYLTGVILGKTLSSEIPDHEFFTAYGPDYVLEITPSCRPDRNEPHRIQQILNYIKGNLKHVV
In words: In vitro HDAC isozyme selectivity screen: HDAC8. As to conditions: for IC50: Table 2.

The target of a further test is T3, HDAC7 (Homo sapiens, UniProt Q8WUI4).
T3 sequence (Q8WUI4 1-952): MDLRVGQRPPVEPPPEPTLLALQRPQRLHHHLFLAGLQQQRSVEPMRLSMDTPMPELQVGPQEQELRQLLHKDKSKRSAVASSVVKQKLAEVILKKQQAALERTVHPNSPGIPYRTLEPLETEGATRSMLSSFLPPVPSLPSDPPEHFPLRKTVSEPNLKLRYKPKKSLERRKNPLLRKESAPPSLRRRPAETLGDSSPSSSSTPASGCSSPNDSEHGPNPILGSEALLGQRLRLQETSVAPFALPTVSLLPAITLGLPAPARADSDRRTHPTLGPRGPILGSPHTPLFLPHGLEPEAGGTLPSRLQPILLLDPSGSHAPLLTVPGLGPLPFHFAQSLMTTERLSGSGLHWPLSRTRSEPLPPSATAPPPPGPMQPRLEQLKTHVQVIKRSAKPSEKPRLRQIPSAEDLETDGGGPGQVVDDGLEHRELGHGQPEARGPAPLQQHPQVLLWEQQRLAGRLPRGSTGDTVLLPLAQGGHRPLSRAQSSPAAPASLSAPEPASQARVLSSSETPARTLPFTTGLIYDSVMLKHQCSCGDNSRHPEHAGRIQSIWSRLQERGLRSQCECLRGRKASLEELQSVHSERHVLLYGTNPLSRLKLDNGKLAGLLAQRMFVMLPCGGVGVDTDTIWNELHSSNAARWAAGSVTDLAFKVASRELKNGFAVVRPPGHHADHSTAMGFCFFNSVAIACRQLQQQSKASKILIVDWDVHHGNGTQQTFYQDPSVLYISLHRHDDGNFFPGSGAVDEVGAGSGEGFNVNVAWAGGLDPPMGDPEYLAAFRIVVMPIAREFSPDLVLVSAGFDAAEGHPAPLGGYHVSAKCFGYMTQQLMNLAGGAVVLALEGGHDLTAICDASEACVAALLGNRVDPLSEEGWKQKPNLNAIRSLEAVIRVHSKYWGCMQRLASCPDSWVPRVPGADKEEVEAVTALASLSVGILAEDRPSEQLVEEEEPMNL
In words: In vitro HDAC isozyme selectivity screen: HDAC7. The conditions noted are these: for IC50: Table 2.

HDAC2, sequence (Q92769 whole entry, species assumed): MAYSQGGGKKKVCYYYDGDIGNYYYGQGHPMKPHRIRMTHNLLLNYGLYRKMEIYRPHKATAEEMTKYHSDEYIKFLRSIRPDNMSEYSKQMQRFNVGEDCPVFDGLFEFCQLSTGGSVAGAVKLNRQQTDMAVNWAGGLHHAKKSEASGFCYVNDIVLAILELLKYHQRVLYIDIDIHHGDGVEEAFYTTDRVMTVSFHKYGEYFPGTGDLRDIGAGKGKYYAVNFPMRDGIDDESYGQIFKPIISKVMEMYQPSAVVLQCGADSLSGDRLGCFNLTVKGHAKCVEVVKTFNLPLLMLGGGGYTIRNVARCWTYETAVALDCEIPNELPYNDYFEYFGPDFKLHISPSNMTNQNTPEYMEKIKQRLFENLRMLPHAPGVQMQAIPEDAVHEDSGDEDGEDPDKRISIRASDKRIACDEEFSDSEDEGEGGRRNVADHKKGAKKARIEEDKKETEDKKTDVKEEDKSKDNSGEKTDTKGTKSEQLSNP
HDAC9, sequence (Q9UKV0 whole entry, species assumed): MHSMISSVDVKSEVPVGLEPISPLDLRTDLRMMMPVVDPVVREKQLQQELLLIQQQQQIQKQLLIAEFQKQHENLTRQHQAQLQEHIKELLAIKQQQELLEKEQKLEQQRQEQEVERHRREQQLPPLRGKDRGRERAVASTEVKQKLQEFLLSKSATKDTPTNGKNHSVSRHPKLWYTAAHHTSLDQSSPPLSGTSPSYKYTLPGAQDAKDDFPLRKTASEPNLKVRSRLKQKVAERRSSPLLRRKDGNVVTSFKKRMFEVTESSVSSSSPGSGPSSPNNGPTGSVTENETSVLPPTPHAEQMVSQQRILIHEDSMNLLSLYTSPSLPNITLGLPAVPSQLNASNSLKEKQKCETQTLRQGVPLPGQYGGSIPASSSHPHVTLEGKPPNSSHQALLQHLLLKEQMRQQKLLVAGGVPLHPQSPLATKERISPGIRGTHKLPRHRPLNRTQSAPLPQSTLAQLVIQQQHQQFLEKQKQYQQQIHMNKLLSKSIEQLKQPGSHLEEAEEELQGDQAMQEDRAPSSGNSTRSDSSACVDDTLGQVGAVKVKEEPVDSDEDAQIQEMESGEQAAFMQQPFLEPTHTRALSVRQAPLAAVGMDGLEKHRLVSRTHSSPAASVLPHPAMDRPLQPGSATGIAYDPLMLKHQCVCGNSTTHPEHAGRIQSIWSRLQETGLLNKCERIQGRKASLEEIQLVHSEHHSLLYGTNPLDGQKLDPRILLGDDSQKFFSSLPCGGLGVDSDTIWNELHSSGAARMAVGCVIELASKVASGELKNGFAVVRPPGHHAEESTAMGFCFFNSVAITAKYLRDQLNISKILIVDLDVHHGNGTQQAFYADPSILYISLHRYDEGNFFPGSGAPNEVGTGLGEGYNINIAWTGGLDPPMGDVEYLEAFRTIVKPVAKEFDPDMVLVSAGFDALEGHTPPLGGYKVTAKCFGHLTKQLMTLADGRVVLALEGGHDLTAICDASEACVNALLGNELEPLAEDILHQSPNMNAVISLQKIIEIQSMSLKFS
HDAC1, sequence (Q13547 whole entry, species assumed): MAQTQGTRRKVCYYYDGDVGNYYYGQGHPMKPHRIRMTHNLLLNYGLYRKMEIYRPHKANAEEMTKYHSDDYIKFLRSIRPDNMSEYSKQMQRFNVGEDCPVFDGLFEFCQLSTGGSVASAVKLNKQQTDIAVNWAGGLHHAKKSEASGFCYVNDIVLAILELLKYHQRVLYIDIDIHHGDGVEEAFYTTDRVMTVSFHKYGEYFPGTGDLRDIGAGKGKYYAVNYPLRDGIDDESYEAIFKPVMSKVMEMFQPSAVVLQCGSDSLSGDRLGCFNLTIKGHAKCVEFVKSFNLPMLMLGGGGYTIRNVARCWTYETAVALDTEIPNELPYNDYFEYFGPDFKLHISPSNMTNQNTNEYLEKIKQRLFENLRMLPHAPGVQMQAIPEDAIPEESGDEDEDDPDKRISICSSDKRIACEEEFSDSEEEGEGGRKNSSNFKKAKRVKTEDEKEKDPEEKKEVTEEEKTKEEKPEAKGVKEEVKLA

For `O=C(NO)c1ccc(NCc2csc3cc(Br)ccc23)cc1` [Compound 13a, 6-bromo-3-[(4-hydroxycarbamoylphenyl)aminomethyl]-benzothiophene], the half-inhibitory concentration (IC50) (commonly the midpoint of a concentration-inhibition curve) against HDAC1 stood at 3.4 µM; at HDAC2 it was 20 µM; against HDAC9, 25 µM; at HDAC10, 7.6 µM; against HDAC8, 1.9 µM; at HDAC7 it was 12 µM.

For the compound `O=C(NO)c1ccc(NCc2csc3ccccc23)cc1` [Compound 7a, 3-[(4-hydroxycarbamoylphenyl)aminomethyl]benzothiophene], the concentration for half-maximal inhibition (IC50) against HDAC1 was determined as 7.5 µM; at HDAC2, 30 µM; on HDAC9, 7.1 µM; against HDAC10 it was 9.9 µM; against HDAC8 it was 1.4 µM; against HDAC7, 5.2 µM.

Consider `O=C(NO)c1ccc(NCc2csc3ccc(Br)cc23)cc1` [Compound 7b, 5-bromo-3-[(4-hydroxycarbamoylphenyl)aminomethyl]-benzothiophene], for which the “effect at 100 μM, HDAC1” value on HDAC1 (100 μM) is on record as “less than 50%”. In addition, the “effect at 100 μM, HDAC2” value at HDAC2 (100 μM) was “less than 50%”. Moreover, the IC50 was above 100 µM against HDAC2, above 100 µM against HDAC9, 33 µM at HDAC10 and 2.1 µM against HDAC8. Moreover, the “effect at 100 μM, HDAC9” value on HDAC9 (100 μM) is “less than 50%”. At HDAC8 (HDAC8 vs HDAC6 IC50), the “selectivity for HDAC6 over HDAC8” value is recorded as 57 fold. For the same compound, the “effect at 100 μM, HDAC7” value on HDAC7 (100 μM) is given as “less than 50%”.
